One experiment deals with T1, Cathepsin K (Homo sapiens, UniProt P43235).
T1 sequence (P43235 whole entry): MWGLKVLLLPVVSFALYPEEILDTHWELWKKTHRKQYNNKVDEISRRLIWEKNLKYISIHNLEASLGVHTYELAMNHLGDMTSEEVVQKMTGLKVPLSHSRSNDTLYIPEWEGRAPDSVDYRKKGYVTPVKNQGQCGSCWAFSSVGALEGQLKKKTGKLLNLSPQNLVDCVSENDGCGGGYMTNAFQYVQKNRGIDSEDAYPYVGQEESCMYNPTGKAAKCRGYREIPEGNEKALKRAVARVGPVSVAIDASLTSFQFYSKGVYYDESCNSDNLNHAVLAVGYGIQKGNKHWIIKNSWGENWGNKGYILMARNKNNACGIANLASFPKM
In words: In vitro Inhibitory activity against Cathepsin K cysteine protease by using Cbz-Phe-Arg-AMC.

Another experiment deals with T2, Procathepsin L (Rattus norvegicus, UniProt P07154).
T2 sequence (P07154 whole entry): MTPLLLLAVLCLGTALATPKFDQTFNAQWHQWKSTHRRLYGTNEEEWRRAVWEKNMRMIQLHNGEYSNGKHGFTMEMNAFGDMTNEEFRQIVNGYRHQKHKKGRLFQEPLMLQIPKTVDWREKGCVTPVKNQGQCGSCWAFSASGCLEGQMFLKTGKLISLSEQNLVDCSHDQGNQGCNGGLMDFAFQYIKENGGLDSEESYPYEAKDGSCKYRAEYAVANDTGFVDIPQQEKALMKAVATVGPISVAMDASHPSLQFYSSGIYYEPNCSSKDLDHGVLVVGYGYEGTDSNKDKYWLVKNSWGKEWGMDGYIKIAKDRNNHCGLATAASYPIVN
The experiment in a line: In vitro Inhibitory activity against Cathepsin L cysteine protease by using Cbz-Phe-Arg-AMC.

The next experiment has as its target Cathepsin B (Homo sapiens, UniProt P07858). In words: In vitro Inhibitory activity against Cathepsin B cysteine protease by using Cbz-Phe-Arg-AMC.
In the next experiment the target is Cathepsin S (Homo sapiens, UniProt P25774). The experiment in a line: In vitro Inhibitory activity against Cathepsin S cysteine protease by using Cbz-Val-Val-Arg-AMC.

A word on the IC50: it is the concentration that inhibits the measured activity by half. Lower therefore signals greater potency in that assay.

Cathepsin S, sequence (P25774 whole entry): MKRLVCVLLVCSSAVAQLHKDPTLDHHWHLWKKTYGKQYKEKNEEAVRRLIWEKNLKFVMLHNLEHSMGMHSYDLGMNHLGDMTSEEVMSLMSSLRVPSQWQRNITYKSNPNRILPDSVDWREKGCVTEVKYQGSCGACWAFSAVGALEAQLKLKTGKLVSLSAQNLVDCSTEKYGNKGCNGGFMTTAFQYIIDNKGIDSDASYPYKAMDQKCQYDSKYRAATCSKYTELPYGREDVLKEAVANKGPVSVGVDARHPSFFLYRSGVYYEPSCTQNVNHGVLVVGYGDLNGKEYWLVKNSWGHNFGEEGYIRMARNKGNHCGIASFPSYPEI

As to `O=C(N[C@@H](Cc1ccccc1)C(=O)N[C@@H]1C(=O)N2CCO[C@H]12)OCc1ccccc1`, the IC50 on Cathepsin K turned out to be 1630 nM; against Procathepsin L it was 85 nM; against Cathepsin B, 1760 nM; on Cathepsin S, 430 nM.

On to `O=C(N[C@@H](Cc1ccccc1)C(=O)N[C@@H]1C(=O)N2CCO[C@@H]12)OCc1ccccc1`, for which the IC50 against Cathepsin K stood at 5 nM; on Procathepsin L, 4 nM; at Cathepsin B, 12200 nM; against Cathepsin S, 77 nM.

`O=C(N[C@H](C(=O)N[C@@H]1C(=O)N2CCO[C@H]12)c1ccccc1)OCc1ccccc1`: the results for the half-inhibitory concentration (IC50) against Procathepsin L and against Cathepsin B were 1830 nM and greater than 50000 nM, respectively.

`CC(C)[C@H](NC(=O)OCc1ccccc1)C(=O)N[C@@H]1C(=O)N2CCO[C@H]12`: the concentration for half-maximal inhibition (IC50) at Cathepsin K was found to be 100 nM; against Procathepsin L it was 600 nM; against Cathepsin B, 30000 nM; on Cathepsin S it was 260 nM.

On to `C[C@H](NC(=O)OCc1ccccc1)C(=O)N[C@@H]1C(=O)N2CCO[C@H]12`, for which the IC50 at Cathepsin K was greater than 2500 nM; against Procathepsin L, 38000 nM; at Cathepsin B it was greater than 50000 nM; against Cathepsin S, greater than 2500 nM.
